Measured values reported in US10918713B2, “Epitopes from allergen proteins and methods and uses for immune response modulation” (LA JOLLA INSTITUTE FOR ALLERGY AND IMMUNOLOGY, priority 2012, dated 2021).
Values joined by “and” are separate entries in the source; they are usually repeats but may differ in a detail not shown here. Equal entries are not always repeated.

Columns and labels:
[1] = system: PBMC from allergic donors; test: IL-5 ELISPOT with extract-stimulated short-term lines; format: cell-based, human; conditions: positive donor/peptide response
Protocol: (§1) Spots were counted by computer-assisted image analysis (Zeiss, KS-ELISPOT reader, Munich, Germany).
(§2) Each assay was performed in triplicate. The level of statistical significance was determined with a Student's t-test using the mean of triplicate values of the response against relevant pools or individual peptides versus the response against the DMSO control.

[2] = system: PBMC from allergic donors; test: Dual ELISPOT, total IL-5 and IFN-γ response (SFC); format: cell-based, human; conditions: sum of IFNg and IL-5
Protocol: as §1, §2

Molecule	Response (SFC/10^6) IL-5 ([1]; each table line is one donor)	Response (SFC/10^6) Total ([2]; each table line is one donor)	Response (SFC/10^6) IL-5 ([1]; one donor per table line)	Response (SFC/10^6) Total ([2]; one donor per table line)
3324.1591 (FIFGEARSLYLNTEL)	500 SFC/10^6 and 133 SFC/10^6	500 SFC/10^6 and 133 SFC/10^6	–	–
3324.1593 (FEAARVVFSYCNLSD)	363 SFC/10^6	363 SFC/10^6	–	–
3324.1594 (SDYFVGANLIVSNSA)	920 SFC/10^6	920 SFC/10^6	–	–
3324.1596 (AAEFGTVDSATLIVE)	3003 SFC/10^6	3003 SFC/10^6	–	–
3324.1599 (EKVKIERLHPYITLY)	260 SFC/10^6	260 SFC/10^6	–	–
3324.1600 (EYIEAAKWLLPPPKV)	980 SFC/10^6	980 SFC/10^6	–	–
3324.1601 (GANLIVSNSAPRPDG)	147 SFC/10^6	147 SFC/10^6	–	–
3324.1602 (RTIFFDAYLGTSYVI)	433 SFC/10^6	433 SFC/10^6	–	–
3324.1603 (DAYLGTSYVIVIKEP)	290 SFC/10^6	290 SFC/10^6	–	–
3324.1606 (KIAAEIAIALLFLRD)	90 SFC/10^6	90 SFC/10^6	–	–
3324.1608 (IAIALLFLRDAKPEP)	97 SFC/10^6	97 SFC/10^6	–	–
3324.1609 (SFGIILLQLLTARPP)	103 SFC/10^6	103 SFC/10^6	–	–
3324.1630 (TKLDDEIKSWLAFAA)	87 SFC/10^6	87 SFC/10^6	–	–
3324.1632 (VIAELKAAGASTIQF)	313 SFC/10^6	313 SFC/10^6	–	–
3324.1640 (VTAFGFDLVRGTKTL)	73 SFC/10^6	73 SFC/10^6	–	–
CC[C@H](C)[C@H](NC(=O)[C@H](Cc1ccc(O)cc1)NC(=O)[C@H](CC(C)C)NC(=O)[C@@H]1CCCN1C(=O)[C@H](CCSC)NC(=O)[C@H](CC(N)=O)NC(=O)[C@H](CC(C)C)NC(=O)[C@H](CCCCN)NC(=O)[C@@H](NC(=O)[C@H](CC(N)=O)NC(=O)[C@H](CC(C)C)NC(=O)[C@@H](N)CC(N)=O)[C@@H](C)CC)C(=O)N[C@@H](C)C(=O)NCC(=O)N[C@@H](CC(N)=O)C(=O)O [3324.0523]	–	–	1708 SFC/10^6	1708 SFC/10^6
CC[C@H](C)[C@H](NC(=O)[C@H](CC(N)=O)NC(=O)[C@H](CCSC)NC(=O)[C@@H](N)CC(N)=O)C(=O)N[C@@H](CCCCN)C(=O)N[C@@H](CC(C)C)C(=O)N[C@@H](CCCCN)C(=O)N[C@@H](CCSC)C(=O)N1CCC[C@H]1C(=O)N[C@@H](CC(C)C)C(=O)N[C@@H](Cc1ccc(O)cc1)C(=O)N[C@H](C(=O)N[C@@H](C)C(=O)NCC(=O)N[C@@H](Cc1c[nH]cn1)C(=O)O)C(C)C [3324.0624]	–	–	3147 SFC/10^6	3147 SFC/10^6
CC[C@H](C)[C@H](NC(=O)[C@H](CO)NC(=O)[C@H](CC(C)C)NC(=O)[C@H](C)NC(=O)[C@H](CC(C)C)NC(=O)[C@H](CC(N)=O)NC(=O)[C@H](CCCCN)NC(=O)[C@H](CCC(=O)O)NC(=O)[C@H](CC(=O)O)NC(=O)[C@H](CO)NC(=O)CN)C(=O)N[C@@H](CCCCN)C(=O)N[C@@H](Cc1ccc(O)cc1)C(=O)N[C@@H](CC(N)=O)C(=O)N[C@@H](CCCCN)C(=O)O [3324.0657]	–	–	1000 SFC/10^6 and 693 SFC/10^6	1000 SFC/10^6 and 693 SFC/10^6
CC[C@H](C)[C@H](NC(=O)[C@H](CO)NC(=O)[C@H](CC(C)C)NC(=O)[C@H](C)NC(=O)[C@H](CC(C)C)NC(=O)[C@@H](N)CC(N)=O)C(=O)N[C@@H](CCCCN)C(=O)N[C@@H](Cc1ccc(O)cc1)C(=O)N[C@@H](CC(N)=O)C(=O)N[C@@H](CCCCN)C(=O)N[C@@H](CCC(=O)O)C(=O)NCC(=O)N[C@@H](CC(=O)O)C(=O)N[C@@H](CO)C(=O)N[C@@H](CCSC)C(=O)O [3324.0658]	–	–	917 SFC/10^6 and 853 SFC/10^6	917 SFC/10^6 and 853 SFC/10^6
CC[C@H](C)[C@H](NC(=O)[C@H](Cc1c[nH]cn1)NC(=O)[C@H](Cc1ccc(O)cc1)NC(=O)[C@H](C)NC(=O)[C@@H](NC(=O)[C@H](Cc1ccccc1)NC(=O)[C@H](C)NC(=O)[C@H](CC(=O)O)NC(=O)[C@@H](N)Cc1ccccc1)C(C)C)C(=O)NCC(=O)N[C@@H](C)C(=O)N[C@@H](CCCNC(=N)N)C(=O)N[C@H](C(=O)N[C@H](C(=O)N[C@@H](CO)C(=O)O)C(C)C)[C@@H](C)CC [3324.0971]	–	–	187 SFC/10^6	187 SFC/10^6
CC[C@H](C)[C@H](NC(=O)[C@H](C)NC(=O)[C@@H](NC(=O)[C@H](Cc1ccccc1)NC(=O)[C@H](C)NC(=O)[C@H](CCCNC(=N)N)NC(=O)[C@H](CC(N)=O)NC(=O)CNC(=O)[C@H](CCCNC(=N)N)NC(=O)[C@@H](N)CO)[C@@H](C)CC)C(=O)N[C@@H](CC(N)=O)C(=O)N[C@@H](CC(C)C)C(=O)N[C@@H](CCC(N)=O)C(=O)N[C@@H](CCCCN)C(=O)N[C@@H](CC(N)=O)C(=O)O [3324.0974]	–	–	940 SFC/10^6	940 SFC/10^6
CC[C@H](C)[C@H](NC(=O)[C@H](Cc1c[nH]cn1)NC(=O)[C@H](Cc1ccc(O)cc1)NC(=O)[C@H](C)NC(=O)[C@@H](NC(=O)[C@H](Cc1ccccc1)NC(=O)[C@H](C)NC(=O)[C@H](CC(=O)O)NC(=O)[C@H](Cc1ccccc1)NC(=O)[C@H](CCC(=O)O)NC(=O)[C@H](CC(=O)O)NC(=O)[C@H](Cc1c[nH]cn1)NC(=O)CNC(=O)[C@@H](NC(=O)[C@@H](N)Cc1ccc(O)cc1)C(C)C)C(C)C)C(=O)O [3324.0975]	–	–	973 SFC/10^6	973 SFC/10^6
CC[C@H](C)[C@H](N)C(=O)N[C@@H](CCC(=O)O)C(=O)N[C@@H](Cc1ccccc1)C(=O)N[C@@H](CCCNC(=N)N)C(=O)N[C@@H](Cc1ccccc1)C(=O)N[C@@H](Cc1ccc(O)cc1)C(=O)N[C@@H](CCCCN)C(=O)N[C@@H](CCC(=O)O)C(=O)N[C@H](C(=O)N[C@H](C(=O)N[C@@H](CC(N)=O)C(=O)N[C@H](C(=O)N[C@@H](Cc1ccccc1)C(=O)N[C@@H](CCCNC(=N)N)C(=O)NCC(=O)O)C(C)C)[C@@H](C)O)[C@@H](C)CC [3324.0976]	–	–	153 SFC/10^6 and 610 SFC/10^6	153 SFC/10^6 and 610 SFC/10^6
